Measured values published in ChEMBL document CHEMBL4831480, “Identification of First-in-Class Inhibitors of Kallikrein-Related Peptidase 6 That Promote Oligodendrocyte Differentiation” (J Med Chem, 2021).
Calls of active or inactive are those of the source. The rule behind the calls is not given here.

Target: T1, Kallikrein-6 (Homo sapiens, UniProt Q92876)
Test: Inhibition of KLK6 (unknown origin) assessed as release of AMC fluorescent product using Boc-QAR-AMC as substrate incubated for 30 mins by microplate reader
Settings: read-out: IC50

SMILES	IC50 [µM]
Cl.NCc1ccc(NC(=O)c2ccc3ccccc3c2O)cc1	6.9
Cc1ccc(C(=O)Nc2ccc(CN)cc2)c(O)c1.Cl	2.37
CC(C)c1ccc(C(=O)Nc2ccc(CN)cc2)c(O)c1	3.63

Species: Homo sapiens
Test: Inhibition of Matriptase (unknown origin) assessed as inhibition of release of AMC fluorescent product using […] as substrate at 10 uM incubated for 30 mins by microplate reader relative to control
Settings: not given

SMILES	inhibition [%]
Cl.NCc1ccc(NC(=O)c2cc3ccccc3cc2O)cc1	8
Cc1ccc2ccc(C(=O)Nc3ccc(CN)cc3)c(O)c2c1	0
COc1ccc2c(O)c(C(=O)Nc3ccc(CN)cc3)ccc2c1	37
Cl.NCc1ccc(NC(=O)c2ccc3ccccc3c2O)cc1	29
Cc1ccc(C(=O)Nc2ccc(CN)cc2)c(O)c1.Cl	0
CC(C)c1ccc(C(=O)Nc2ccc(CN)cc2)c(O)c1	13
CC(C)(C)c1ccc(O)c(C(=O)Nc2ccc(CN)cc2)c1.Cl	0

Target: T1, Kallikrein-6
Test: Competitive inhibition of KLK6 (unknown origin) using Boc-QAR-AMC as substrate incubated for 30 mins by Dixon plot analysis
Settings: not given

SMILES	Ki [µM]
Cl.NCc1ccc(NC(=O)c2ccc3ccccc3c2O)cc1	2.4
Cc1ccc(C(=O)Nc2ccc(CN)cc2)c(O)c1.Cl	2
CC(C)c1ccc(C(=O)Nc2ccc(CN)cc2)c(O)c1	1.5
CC(C)(C)c1ccc(O)c(C(=O)Nc2ccc(CN)cc2)c1.Cl	4.3

Target: T2, Plasminogen (Homo sapiens, UniProt P00747)
Test: Inhibition of plasmin (unknown origin) assessed as release of AMC fluorescent product using Boc-QAR-AMC as substrate incubated for 30 mins by microplate reader
Settings: not given

T2 sequence (P00747 97-580 limits assumed): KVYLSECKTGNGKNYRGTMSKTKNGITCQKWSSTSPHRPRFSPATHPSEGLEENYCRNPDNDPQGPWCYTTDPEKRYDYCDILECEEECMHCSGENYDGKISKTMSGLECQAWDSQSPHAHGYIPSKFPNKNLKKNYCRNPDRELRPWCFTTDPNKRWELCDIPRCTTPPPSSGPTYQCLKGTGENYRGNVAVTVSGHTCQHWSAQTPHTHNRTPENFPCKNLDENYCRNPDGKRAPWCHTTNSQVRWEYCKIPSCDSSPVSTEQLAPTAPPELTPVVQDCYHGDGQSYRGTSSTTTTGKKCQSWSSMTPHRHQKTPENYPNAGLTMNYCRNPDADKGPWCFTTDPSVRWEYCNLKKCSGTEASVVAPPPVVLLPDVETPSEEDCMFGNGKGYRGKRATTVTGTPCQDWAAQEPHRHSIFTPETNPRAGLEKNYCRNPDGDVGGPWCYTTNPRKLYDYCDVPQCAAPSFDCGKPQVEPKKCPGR
T2 sequence (P00747 581-810 limits assumed): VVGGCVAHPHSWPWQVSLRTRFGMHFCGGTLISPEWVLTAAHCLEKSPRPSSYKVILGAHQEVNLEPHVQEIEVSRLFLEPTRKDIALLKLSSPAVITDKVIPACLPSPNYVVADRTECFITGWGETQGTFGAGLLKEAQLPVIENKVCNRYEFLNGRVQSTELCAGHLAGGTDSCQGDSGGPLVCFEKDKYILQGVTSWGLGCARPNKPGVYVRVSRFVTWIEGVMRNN

SMILES	IC50 [µM]
Cl.NCc1ccc(NC(=O)c2cc3ccccc3cc2O)cc1	7.4
Cc1ccc2ccc(C(=O)Nc3ccc(CN)cc3)c(O)c2c1	6.7
COc1ccc2c(O)c(C(=O)Nc3ccc(CN)cc3)ccc2c1	3.3
Cl.NCc1ccc(NC(=O)c2ccc3ccccc3c2O)cc1	10.2
Cc1ccc(C(=O)Nc2ccc(CN)cc2)c(O)c1.Cl	9.2
CC(C)c1ccc(C(=O)Nc2ccc(CN)cc2)c(O)c1	4.8
CC(C)(C)c1ccc(O)c(C(=O)Nc2ccc(CN)cc2)c1.Cl	21.3

Target: T3, Kallikrein-1 (Homo sapiens, UniProt P06870)
Test: Inhibition of KLK1 (unknown origin) assessed as release of AMC fluorescent product using H-PFR-AMC as substrate incubated for 30 mins by microplate reader
Settings: not given

T3 sequence (P06870 whole entry): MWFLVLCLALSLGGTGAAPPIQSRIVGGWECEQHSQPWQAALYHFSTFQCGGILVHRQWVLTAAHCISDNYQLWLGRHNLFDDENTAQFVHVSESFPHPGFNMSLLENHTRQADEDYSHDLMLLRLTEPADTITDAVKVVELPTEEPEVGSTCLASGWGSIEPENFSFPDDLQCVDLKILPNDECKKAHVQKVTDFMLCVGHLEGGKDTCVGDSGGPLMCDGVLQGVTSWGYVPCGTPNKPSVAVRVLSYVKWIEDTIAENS

SMILES	IC50 [µM]
Cl.NCc1ccc(NC(=O)c2cc3ccccc3cc2O)cc1	5.1
Cc1ccc2ccc(C(=O)Nc3ccc(CN)cc3)c(O)c2c1	49.4
COc1ccc2c(O)c(C(=O)Nc3ccc(CN)cc3)ccc2c1	16.1
Cl.NCc1ccc(NC(=O)c2ccc3ccccc3c2O)cc1	21.3
Cc1ccc(C(=O)Nc2ccc(CN)cc2)c(O)c1.Cl	26.3
CC(C)c1ccc(C(=O)Nc2ccc(CN)cc2)c(O)c1	8.4
CC(C)(C)c1ccc(O)c(C(=O)Nc2ccc(CN)cc2)c1.Cl	38.6

Target: Kallikrein-4 (Homo sapiens) (UniProt Q9Y5K2)
Test: Inhibition of KLK4 (unknown origin) assessed as inhibition of release of AMC fluorescent product using H-VPR-AMC as substrate at 10 uM incubated for 30 mins by microplate reader relative to control
Settings: not given

Chain of Kallikrein-4 (Homo sapiens) (Q9Y5K2 whole entry): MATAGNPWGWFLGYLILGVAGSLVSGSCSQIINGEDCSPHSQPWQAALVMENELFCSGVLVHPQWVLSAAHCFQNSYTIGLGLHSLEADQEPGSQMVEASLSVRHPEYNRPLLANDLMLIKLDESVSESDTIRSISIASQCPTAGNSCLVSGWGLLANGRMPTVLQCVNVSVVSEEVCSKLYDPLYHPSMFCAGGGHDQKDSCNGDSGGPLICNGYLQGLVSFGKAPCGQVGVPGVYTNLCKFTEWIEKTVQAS

SMILES	inhibition [%]
Cl.NCc1ccc(NC(=O)c2cc3ccccc3cc2O)cc1	2
Cc1ccc2ccc(C(=O)Nc3ccc(CN)cc3)c(O)c2c1	6
COc1ccc2c(O)c(C(=O)Nc3ccc(CN)cc3)ccc2c1	3
Cl.NCc1ccc(NC(=O)c2ccc3ccccc3c2O)cc1	14
Cc1ccc(C(=O)Nc2ccc(CN)cc2)c(O)c1.Cl	0
CC(C)c1ccc(C(=O)Nc2ccc(CN)cc2)c(O)c1	45
CC(C)(C)c1ccc(O)c(C(=O)Nc2ccc(CN)cc2)c1.Cl	0

System: not listed separately
Test: Cytotoxicity against Swiss mouse cortical cells assessed as cell viability at 50 uM incubated for 24 hrs by XTT assay
Type: cell-based, Cortical neurone
Settings: mouse cortical cells (cortical neurones), read-out: Activity

SMILES	viability at 24 h, 50 µM [%]
Cl.NCc1ccc(NC(=O)c2cc3ccccc3cc2O)cc1	65
Cc1ccc(C(=O)Nc2ccc(CN)cc2)c(O)c1.Cl	65

Target: Trypsin (Homo sapiens) (UniProt P07477+P07478+P35030)
Test: Inhibition of Trypsin (unknown origin) assessed as inhibition of release of AMC fluorescent product using […] as substrate at 10 uM incubated for 30 mins by microplate reader relative to control
Type: protein assay
Settings: not given

SMILES	inhibition [%]
Cl.NCc1ccc(NC(=O)c2cc3ccccc3cc2O)cc1	25
Cc1ccc2ccc(C(=O)Nc3ccc(CN)cc3)c(O)c2c1	32
COc1ccc2c(O)c(C(=O)Nc3ccc(CN)cc3)ccc2c1	41
Cl.NCc1ccc(NC(=O)c2ccc3ccccc3c2O)cc1	34
Cc1ccc(C(=O)Nc2ccc(CN)cc2)c(O)c1.Cl	15
CC(C)c1ccc(C(=O)Nc2ccc(CN)cc2)c(O)c1	91
CC(C)(C)c1ccc(O)c(C(=O)Nc2ccc(CN)cc2)c1.Cl	5

Target: T4, Trypsin-3 (Homo sapiens) (UniProt P35030)
T4 sequence (whole entry): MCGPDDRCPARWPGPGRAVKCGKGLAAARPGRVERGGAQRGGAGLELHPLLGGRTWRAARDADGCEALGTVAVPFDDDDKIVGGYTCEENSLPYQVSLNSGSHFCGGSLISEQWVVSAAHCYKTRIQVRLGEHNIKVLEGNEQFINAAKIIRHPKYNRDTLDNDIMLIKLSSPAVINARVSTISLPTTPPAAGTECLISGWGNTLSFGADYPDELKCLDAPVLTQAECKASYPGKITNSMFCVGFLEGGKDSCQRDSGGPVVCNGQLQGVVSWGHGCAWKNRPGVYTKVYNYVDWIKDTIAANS
Test: Inhibition of Trypsin 3 (unknown origin) assessed as inhibition of release of AMC fluorescent product using […] as substrate at 10 uM incubated for 30 mins by microplate reader relative to control
Settings: not given

SMILES	inhibition [%]
Cl.NCc1ccc(NC(=O)c2cc3ccccc3cc2O)cc1	36
Cc1ccc2ccc(C(=O)Nc3ccc(CN)cc3)c(O)c2c1	21
COc1ccc2c(O)c(C(=O)Nc3ccc(CN)cc3)ccc2c1	32
Cl.NCc1ccc(NC(=O)c2ccc3ccccc3c2O)cc1	30
Cc1ccc(C(=O)Nc2ccc(CN)cc2)c(O)c1.Cl	20
CC(C)c1ccc(C(=O)Nc2ccc(CN)cc2)c(O)c1	73
CC(C)(C)c1ccc(O)c(C(=O)Nc2ccc(CN)cc2)c1.Cl	15

Target: T2, Plasminogen
Test: Competitive inhibition of plasmin (unknown origin) using Boc-QAR-AMC as substrate incubated for 30 mins by Dixon plot analysis
Settings: not given

SMILES	Ki [µM]
Cl.NCc1ccc(NC(=O)c2cc3ccccc3cc2O)cc1	1.3
Cl.NCc1ccc(NC(=O)c2ccc3ccccc3c2O)cc1	1.5

Target: T3, Kallikrein-1
Test: Competitive inhibition of KLK1 (unknown origin) assessed as release of AMC fluorescent product using H-PFR-AMC as substrate incubated for 30 mins by microplate reader
Settings: not given

SMILES	Ki [µM]
Cl.NCc1ccc(NC(=O)c2cc3ccccc3cc2O)cc1	2.4

System: Cortical neurone
Test: Cytotoxicity against Swiss mouse cortical cells assessed as cell viability at 10 uM incubated for 24 hrs by XTT assay
Type: cell-based
Settings: not given

SMILES	Activity
Cl.NCc1ccc(NC(=O)c2ccc3ccccc3c2O)cc1	Toxic

System: Cortical neurone
Test: Cytotoxicity against Swiss mouse cortical cells assessed as cell viability at 25 uM incubated for 24 hrs by XTT assay
Type: cell-based
Settings: not given

SMILES	Activity
CC(C)(C)c1ccc(O)c(C(=O)Nc2ccc(CN)cc2)c1.Cl	Toxic

System: CG-4
Test: Induction of oligodendrocyte differentiation in Sprague-Dawley rat CG-4 cells assessed as matured oligodendrocyte by measuring increase in mCherry positive cells at 2 uM measured after 4 days by fluorescence imaging analysis
Type: functional, cell-based
Settings: time 4.0 day

SMILES	Activity
CC(C)(C)c1ccc(O)c(C(=O)Nc2ccc(CN)cc2)c1.Cl	Active

System: not listed separately
Test: Cytotoxicity against Sprague-Dawley rat CG-4 cells assessed as cell death at 30 uM measured after 4 days by fluorescence imaging analysis
Type: cell-based
Settings: cg-4, 96 h, time 4 day

SMILES	Activity
CC(C)(C)c1ccc(O)c(C(=O)Nc2ccc(CN)cc2)c1.Cl	Toxic

System: CG-4
Test: Induction of oligodendrocyte differentiation in Sprague-Dawley rat CG-4 cells assessed as matured oligodendrocyte by measuring increase in mCherry positive cells at 6 to 8 uM measured after 4 days by fluorescence imaging analysis
Type: functional, cell-based
Settings: dose 6-8 µM, time 4.0 day

SMILES	Activity
Cc1ccc(C(=O)Nc2ccc(CN)cc2)c(O)c1.Cl	Active

System: not listed separately
Test: Toxicity in human blood assessed as effect on activated partial thromboplastin time
Type: tissue-based
Settings: not given

SMILES	Activity
Cl.NCc1ccc(NC(=O)c2cc3ccccc3cc2O)cc1	Non-Toxic
Cc1ccc(C(=O)Nc2ccc(CN)cc2)c(O)c1.Cl	Non-Toxic

System: not listed separately
Test: Toxicity in human blood assessed as effect on prothrombin ratio
Type: tissue-based
Settings: not given

SMILES	Activity
Cl.NCc1ccc(NC(=O)c2cc3ccccc3cc2O)cc1	Non-Toxic
Cc1ccc(C(=O)Nc2ccc(CN)cc2)c(O)c1.Cl	Non-Toxic

System: not listed separately
Test: Permeability in human Caco-2 cells assessed as compound recovery
Type: ADME, cell-based
Settings: read-out: Activity

SMILES	recovery [%]
Cl.NCc1ccc(NC(=O)c2cc3ccccc3cc2O)cc1	> 90
Cc1ccc(C(=O)Nc2ccc(CN)cc2)c(O)c1.Cl	> 90

System: not listed separately
Test: Metabolic stability in human liver microsomes assessed as half life
Type: ADME, Microsome
Settings: not given

SMILES	half-life [h]
Cl.NCc1ccc(NC(=O)c2cc3ccccc3cc2O)cc1	> 2
Cc1ccc(C(=O)Nc2ccc(CN)cc2)c(O)c1.Cl	> 2

Target: Voltage-gated inwardly rectifying potassium channel KCNH2 (Homo sapiens, UniProt Q12809)
Test: Inhibition of human ERG
Settings: not given

Chain of Voltage-gated inwardly rectifying potassium channel KCNH2 (Q12809 whole entry): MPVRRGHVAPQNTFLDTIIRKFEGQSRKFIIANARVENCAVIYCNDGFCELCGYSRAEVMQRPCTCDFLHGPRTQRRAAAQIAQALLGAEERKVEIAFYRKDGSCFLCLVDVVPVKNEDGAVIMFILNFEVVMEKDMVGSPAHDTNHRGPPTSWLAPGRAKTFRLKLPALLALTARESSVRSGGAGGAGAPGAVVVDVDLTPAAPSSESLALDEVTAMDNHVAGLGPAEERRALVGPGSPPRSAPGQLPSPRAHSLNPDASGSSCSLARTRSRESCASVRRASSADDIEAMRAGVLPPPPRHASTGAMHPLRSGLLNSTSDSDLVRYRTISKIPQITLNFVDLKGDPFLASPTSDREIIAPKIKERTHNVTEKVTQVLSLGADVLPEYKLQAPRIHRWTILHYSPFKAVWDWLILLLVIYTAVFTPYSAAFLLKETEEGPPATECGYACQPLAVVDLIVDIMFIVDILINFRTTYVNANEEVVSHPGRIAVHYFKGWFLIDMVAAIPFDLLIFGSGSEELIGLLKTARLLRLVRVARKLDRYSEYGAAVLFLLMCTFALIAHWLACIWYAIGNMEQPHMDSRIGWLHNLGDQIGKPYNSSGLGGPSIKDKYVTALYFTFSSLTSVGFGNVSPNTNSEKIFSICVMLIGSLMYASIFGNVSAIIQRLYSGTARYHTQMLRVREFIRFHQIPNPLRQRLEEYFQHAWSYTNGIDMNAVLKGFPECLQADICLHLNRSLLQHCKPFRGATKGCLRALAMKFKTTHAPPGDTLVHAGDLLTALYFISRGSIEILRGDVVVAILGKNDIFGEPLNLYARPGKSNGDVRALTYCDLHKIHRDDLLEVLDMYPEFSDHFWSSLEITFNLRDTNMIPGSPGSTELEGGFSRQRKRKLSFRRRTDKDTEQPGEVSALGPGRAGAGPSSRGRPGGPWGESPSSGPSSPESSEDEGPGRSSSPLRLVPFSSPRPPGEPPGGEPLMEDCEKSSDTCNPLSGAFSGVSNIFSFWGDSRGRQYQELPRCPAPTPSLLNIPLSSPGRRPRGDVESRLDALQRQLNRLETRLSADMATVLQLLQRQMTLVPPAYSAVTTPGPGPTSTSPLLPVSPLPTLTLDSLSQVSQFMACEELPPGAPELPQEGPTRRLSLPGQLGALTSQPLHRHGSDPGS

SMILES	Activity
Cl.NCc1ccc(NC(=O)c2cc3ccccc3cc2O)cc1	Not Active
Cc1ccc(C(=O)Nc2ccc(CN)cc2)c(O)c1.Cl	Not Active

System: Microglia
Test: Anti-inflammatory activity in new born Wistar rat brain microglia assessed as reduction in LPS-induced TNFalpha expression measured after 24 hrs by ELISA
Settings: not given

SMILES	Activity
Cl.NCc1ccc(NC(=O)c2cc3ccccc3cc2O)cc1	Active
Cc1ccc(C(=O)Nc2ccc(CN)cc2)c(O)c1.Cl	inactive

System: Microglia
Test: Anti-inflammatory activity in new born Wistar rat brain microglia assessed as reduction in LPS-induced IL-1beta expression measured after 24 hrs by ELISA
Settings: not given

SMILES	Activity
Cl.NCc1ccc(NC(=O)c2cc3ccccc3cc2O)cc1	Active
Cc1ccc(C(=O)Nc2ccc(CN)cc2)c(O)c1.Cl	inactive

Target: T5, Kallikrein-11 (Homo sapiens) (UniProt Q9UBX7)
T5 sequence (whole entry): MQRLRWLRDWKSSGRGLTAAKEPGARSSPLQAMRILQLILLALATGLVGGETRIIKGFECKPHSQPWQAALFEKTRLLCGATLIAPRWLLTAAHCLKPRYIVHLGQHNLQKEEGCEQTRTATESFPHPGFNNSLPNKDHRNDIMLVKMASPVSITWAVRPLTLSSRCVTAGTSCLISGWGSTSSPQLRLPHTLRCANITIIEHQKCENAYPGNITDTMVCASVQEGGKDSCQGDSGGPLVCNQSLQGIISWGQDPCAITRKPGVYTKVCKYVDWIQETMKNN
Test: Inhibition of KLK11 (unknown origin) assessed as inhibition of release of AMC fluorescent product using Boc-QAR-AMC as substrate at 10 uM incubated for 30 mins by microplate reader relative to control
Settings: not given

SMILES	inhibition [%]
Cl.NCc1ccc(NC(=O)c2cc3ccccc3cc2O)cc1	45
Cc1ccc2ccc(C(=O)Nc3ccc(CN)cc3)c(O)c2c1	88
COc1ccc2c(O)c(C(=O)Nc3ccc(CN)cc3)ccc2c1	0
Cl.NCc1ccc(NC(=O)c2ccc3ccccc3c2O)cc1	80
Cc1ccc(C(=O)Nc2ccc(CN)cc2)c(O)c1.Cl	39
CC(C)c1ccc(C(=O)Nc2ccc(CN)cc2)c(O)c1	75
CC(C)(C)c1ccc(O)c(C(=O)Nc2ccc(CN)cc2)c1.Cl	56

System: Prothrombin/thrombin
Test: Inhibition of Thrombin (unknown origin) assessed as inhibition of release of AMC fluorescent product using […] as substrate at 10 uM incubated for 30 mins by microplate reader relative to control
Settings: Homo sapiens

SMILES	inhibition [%]
Cc1ccc2ccc(C(=O)Nc3ccc(CN)cc3)c(O)c2c1	6
Cl.NCc1ccc(NC(=O)c2ccc3ccccc3c2O)cc1	5
Cc1ccc(C(=O)Nc2ccc(CN)cc2)c(O)c1.Cl	0
CC(C)c1ccc(C(=O)Nc2ccc(CN)cc2)c(O)c1	32
CC(C)(C)c1ccc(O)c(C(=O)Nc2ccc(CN)cc2)c1.Cl	2

Target: Kallikrein-7 (Homo sapiens) (UniProt P49862)
Test: Inhibition of KLK7 (unknown origin) assessed as inhibition of release of AMC fluorescent product using MeO-Suc-RPY-AMC as substrate at 10 uM incubated for 30 mins by microplate reader relative to control
Settings: not given

Chain of Kallikrein-7 (Homo sapiens) (P49862 30-253 limits assumed): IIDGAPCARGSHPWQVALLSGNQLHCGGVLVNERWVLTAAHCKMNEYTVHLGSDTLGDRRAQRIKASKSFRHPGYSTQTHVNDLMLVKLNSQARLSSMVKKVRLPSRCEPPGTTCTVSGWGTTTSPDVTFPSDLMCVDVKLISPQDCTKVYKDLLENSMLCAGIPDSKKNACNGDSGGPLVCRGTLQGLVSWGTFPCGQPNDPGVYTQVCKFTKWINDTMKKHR

SMILES	inhibition [%]
Cl.NCc1ccc(NC(=O)c2cc3ccccc3cc2O)cc1	6
Cc1ccc2ccc(C(=O)Nc3ccc(CN)cc3)c(O)c2c1	11
COc1ccc2c(O)c(C(=O)Nc3ccc(CN)cc3)ccc2c1	10
Cl.NCc1ccc(NC(=O)c2ccc3ccccc3c2O)cc1	0
Cc1ccc(C(=O)Nc2ccc(CN)cc2)c(O)c1.Cl	12
CC(C)c1ccc(C(=O)Nc2ccc(CN)cc2)c(O)c1	7
CC(C)(C)c1ccc(O)c(C(=O)Nc2ccc(CN)cc2)c1.Cl	9
